What was measured:
[1] = test system: Klebsiella pneumoniae (KPN) isolates; assay: MIC of compounds alone and combined with antibacterials, broth microdilution (CLSI); type: cell-based
How it was run: (§1)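 Antibacterial MICs in combination were determined at every compound concentration tested, alongside compound MICs alone. Bacteria grew in cation-adjusted Mueller-Hinton broth starting from 5.10^5 CFU/mL, incubated at 35° C for 16-20 h, and endpoints were the lowest concentrations with no visible growth.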

[2] = test system: Citrobacter freundii (CFR) isolates; assay: as above; type: cell-based
How it was run: as §1

C=CC1=C(C(=O)O)N2C(=O)[C@@H](NC(=O)/C(=N\OCC(=O)O)c3csc(N)n3)[C@H]2SC1 [FIX, Cefixime]
MIC ([1]; strain KPN UFR25, compound alone): >128 µg/mL
MIC ([1]; strain KPN UFR25, genotype TEM-1, SHV-11, CTX-M-15, OXA-162): >128 µg/mL
MIC ([1]; strain KPN UFR27, genotype TEM-1, SHV-28, CTX-M-15, OXA-204): >128 µg/mL
MIC ([1]; strain KPN UFR28, genotype TEM-1, SHV-1, CTX-M-15, OXA-1, OXA-232): 256 µg/mL
MIC ([1]; strain KPN UFR33, genotype TEM-2, SHV-12, CTX-M-15, OXA-1, OXA-10): >128 µg/mL
MIC ([1]; strain KPN UFR42, genotype SHV-2, CTX-M-15 OXA-1, OXA-181, NDM-1): >128 µg/mL
MIC ([1]; strain KPN UFR43, genotype SHV-11, CTX-M-15, CMY-2, OXA-1, NDM-1): >128 µg/mL
MIC ([1]; strain KPN UFR46, genotype TEM-1, SHV-12, CTX-M-15, OXA-9, VIM-1): >128 µg/mL
MIC ([1]; strain KPN UFR53, genotype TEM-1, IMP-1): >128 µg/mL
MIC ([1]; strain KPN UFR65, genotype TEM-1, SHV-11, KPC-2): >128 µg/mL
MIC ([1]; strain KPN UFR66, compound alone): 512 µg/mL
MIC ([1]; strain KPN UFR66, genotype TEM-1, SHV-11, CTX-M-15, KPC-2): 512 µg/mL
MIC ([1]; strain KPN UFR67, genotype TEM-1, SHV-11, KPC-3): >128 µg/mL
MIC ([1]; strain KPN UFR68, compound alone): >128 µg/mL
MIC ([1]; strain KPN UFR68, genotype TEM-1, SHV-11, CTX-M-15, KPC-3): >128 µg/mL
MIC ([1]; strain KPN UFR76, genotype TEM-155, SHV-11, ACT-1, OXA-2): >128 µg/mL
MIC ([1]; strain KPN UFR77, genotype CMY-2): 128 µg/mL
MIC ([1]; strain KPN UFR78, genotype TEM-1, SHV-1, CTX-M-15, CMY-2, OXA-1, OXA-48): >128 µg/mL
MIC ([1]; strain KPN UFR79, genotype DHA-1, OXA-1): >128 µg/mL
MIC ([1]; strain KPN UFR80, genotype SHV-11, DHA-1, OXA-1): <=0.25 μg/mL
MIC ([1]; strain KPN UFR81, genotype TEM-1, SHV-1, DHA-1, OXA-48): >128 µg/mL
MIC ([1]; strain KPN UFR162, genotype SHV-28, TEM-1, CTX-M-15, OXA-181, OXA-181, NDM-1, antibiotic alone): >128 µg/mL
MIC ATB in combination ([1]; strain KPN UFR162, with AF2 @ 8 μg/mL): >128 µg/mL
MIC ATB in combination ([1]; strain KPN UFR162, with AF3 @ 8 μg/mL): <0.25 µg/mL
MIC ATB in combination ([1]; strain KPN UFR162, with CLA @ 4 μg/mL): >128 µg/mL
MIC ([1]; strain KPN UFR163, genotype TEM-1, SHV-1, CTX-M-15, OXA-232, OXA-9, NDM-1, qnrB1, qepA, RmtB, antibiotic alone): >128 µg/mL
MIC ATB in combination ([1]; strain KPN UFR163, with AF2 @ 8 μg/mL): >128 µg/mL
MIC ATB in combination ([1]; strain KPN UFR163, with AF3 @ 8 μg/mL): <0.25 µg/mL
MIC ATB in combination ([1]; strain KPN UFR163, with CLA @ 4 μg/mL): >128 µg/mL
MIC ([1]; strain KPN UFR164, genotype SHV-11, CTX-M-15, OXA-1, OXA-181, NDM-1, antibiotic alone): >128 µg/mL
MIC ATB in combination ([1]; strain KPN UFR164, with AF2 @ 8 μg/mL): >128 µg/mL
MIC ATB in combination ([1]; strain KPN UFR164, with AF3 @ 8 μg/mL): >128 µg/mL
MIC ATB in combination ([1]; strain KPN UFR164, with CLA @ 4 μg/mL): >128 µg/mL
MIC ([1]; strain KPN UFR165, genotype TEM-1, SHV-11, CTX-M-15, OXA-1, OXA-181, NDM-1, antibiotic alone): >128 µg/mL
MIC ATB in combination ([1]; strain KPN UFR165, with AF2 @ 8 μg/mL): 64 µg/mL
MIC ATB in combination ([1]; strain KPN UFR165, with AF3 @ 8 μg/mL): >128 µg/mL
MIC ATB in combination ([1]; strain KPN UFR165, with CLA @ 4 μg/mL): >128 µg/mL
MIC ([1]; strain KPN UFR166, genotype TEM-1, TEM-1, CTX-M-15, OXA-181, OXA-9, NDM-1, antibiotic alone): >128 µg/mL
MIC ATB in combination ([1]; strain KPN UFR166, with AF2 @ 8 μg/mL): >128 µg/mL
MIC ATB in combination ([1]; strain KPN UFR166, with AF3 @ 8 μg/mL): >128 µg/mL
MIC ATB in combination ([1]; strain KPN UFR166, with CLA @ 4 μg/mL): >128 µg/mL
MIC ([1]; strain KPN UFR167, genotype TEM-1, SHV-12, CTX-M-15, OXA-9, NDM-1, antibiotic alone): >128 µg/mL
MIC ATB in combination ([1]; strain KPN UFR167, with AF2 @ 8 μg/mL): >128 µg/mL
MIC ATB in combination ([1]; strain KPN UFR167, with AF3 @ 8 μg/mL): >128 µg/mL
MIC ATB in combination ([1]; strain KPN UFR167, with CLA @ 4 μg/mL): >128 µg/mL
MIC ([1]; strain KPN UFR168, genotype SHV-2, CTX-M-15, OXA-1, OXA-181, NDM-1, ArmA, antibiotic alone): >128 µg/mL
MIC ATB in combination ([1]; strain KPN UFR168, with AF2 @ 8 μg/mL): >128 µg/mL
MIC ATB in combination ([1]; strain KPN UFR168, with AF3 @ 8 μg/mL): >128 µg/mL
MIC ATB in combination ([1]; strain KPN UFR168, with CLA @ 4 μg/mL): >128 µg/mL
MIC ([1]; strain KPN UFR169, genotype TEM-1, SHV-28, CTX-M-15, CMY-4, OXA-1, NDM-1, antibiotic alone): >128 µg/mL
MIC ATB in combination ([1]; strain KPN UFR169, with AF2 @ 8 μg/mL): >128 µg/mL
MIC ATB in combination ([1]; strain KPN UFR169, with AF3 @ 8 μg/mL): >128 µg/mL
MIC ATB in combination ([1]; strain KPN UFR169, with CLA @ 4 μg/mL): >128 µg/mL
MIC ([1]; strain KPN UFR170, genotype TEM-1, SHV-28, CTX-M-15, CMY-6, OXA-1, OXA-9, NDM-1, antibiotic alone): >128 µg/mL
MIC ATB in combination ([1]; strain KPN UFR170, with AF2 @ 8 μg/mL): <0.25 µg/mL
MIC ATB in combination ([1]; strain KPN UFR170, with AF3 @ 8 μg/mL): >128 µg/mL
MIC ATB in combination ([1]; strain KPN UFR170, with CLA @ 4 μg/mL): >128 µg/mL
MIC ([1]; strain KPN UFR171, genotype TEM-1, SHV-28, CTX-M-15, OXA-1, OXA-10, NDM-1, RmtA, antibiotic alone): >128 µg/mL
MIC ATB in combination ([1]; strain KPN UFR171, with AF2 @ 8 μg/mL): <0.25 µg/mL
MIC ATB in combination ([1]; strain KPN UFR171, with AF3 @ 8 μg/mL): <0.25 µg/mL
MIC ATB in combination ([1]; strain KPN UFR171, with CLA @ 4 μg/mL): >128 µg/mL
MIC ([1]; strain KPN UFR172, genotype SHV-38, CMY-16, OXA-10, NDM-1, antibiotic alone): >128 µg/mL
MIC ATB in combination ([1]; strain KPN UFR172, with AF2 @ 8 μg/mL): <0.25 µg/mL
MIC ATB in combination ([1]; strain KPN UFR172, with AF3 @ 8 μg/mL): <0.25 µg/mL
MIC ATB in combination ([1]; strain KPN UFR172, with CLA @ 4 μg/mL): >128 µg/mL
MIC ([1]; strain KPN UFR215, genotype SHV-27, CTX-M-15): >128 µg/mL
MIC ([1]; strain KPN UFR216, genotype SHV-28, CTX-M-15): >128 µg/mL
MIC ([1]; strain KPN UFR217, genotype TEM-1, SHV-1, CTX-M-15): >128 µg/mL
MIC ([1]; strain KPN UFR219, genotype SHV-12, CTX-M-15): >128 µg/mL
MIC ([1]; strain KPN UFR220, genotype TEM-1, SHV-12, DHA-1): >128 µg/mL
MIC ([1]; strain KPN UFR221, genotype TEM-1, SHV-11, CTX-M-14, DHA-1): 64 µg/mL
MIC ([1]; strain KPN UFR222, genotype DHA-2): >128 µg/mL
MIC ([1]; strain KPN UFR227O, genotype TEM-x, SHV-x, CTX-M-x): >128 µg/mL
MIC ([1]; strain KPN UFR229O, genotype SHV-12, VIM-1, antibiotic alone): >128 µg/mL
MIC ATB in combination ([1]; strain KPN UFR229O, with AF2 @ 8 μg/mL): >128 µg/mL
MIC ATB in combination ([1]; strain KPN UFR229O, with AF3 @ 8 μg/mL): >128 µg/mL
MIC ATB in combination ([1]; strain KPN UFR229O, with CLA @ 4 μg/mL): >128 µg/mL
MIC ATB in combination ([2]; CFR UFR10, AF2 @ 8 μg/mL): <0.25 µg/mL
MIC ATB in combination ([2]; CFR UFR10, AF3 @ 8 μg/mL): <=0.25 μg/mL
MIC ATB in combination ([2]; CFR UFR10, CLA @ 4 μg/mL): 32 µg/mL
MIC ATB in combination ([2]; CFR UFR11, AF2 @ 8 μg/mL): 16 µg/mL
MIC ATB in combination ([2]; CFR UFR11, AF3 @ 8 μg/mL): 32 µg/mL
MIC ATB in combination ([2]; CFR UFR11, CLA @ 4 μg/mL): 32 µg/mL
MIC ATB in combination ([2]; CFR UFR37, AF2 @ 8 μg/mL): <=0.25 μg/mL
MIC ATB in combination ([2]; CFR UFR37, AF3 @ 8 μg/mL): <=0.25 μg/mL
MIC ATB in combination ([2]; CFR UFR37, CLA @ 4 μg/mL): >128 µg/mL
MIC ATB in combination ([2]; CFR UFR83, AF2 @ 8 μg/mL): >128 µg/mL
MIC ATB in combination ([2]; CFR UFR83, AF3 @ 8 μg/mL): >128 µg/mL
MIC ATB in combination ([2]; CFR UFR83, CLA @ 4 μg/mL): >128 µg/mL
MIC ATB in combination ([2]; CFR UFR146, AF2 @ 8 μg/mL): 2 µg/mL

— US20200017495A1, “NOVEL HETEROCYCLIC COMPOUNDS AND THEIR USE IN PREVENTING OR TREATING BACTERIAL INFECTIONS” (priority 2017, published 2020)
